Test results from the supplement of paper PMC8612539.

System: Histophilus somni
Assay: minimum inhibitory concentration (MIC)
Description: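 Broth microdilution MIC (Sensititre BOPO7F bovine plate, CLSI methods) of 19 antimicrobials against field isolates of P. multocida, M. haemolytica, H. somni (deep nasopharyngeal swabs) and E. coli, Enterococcus spp. (rectal swabs) from weaned dairy heifers. Incubation 16-24 h at 35 C. MIC is the lowest concentration preventing visible growth. Values with <= or > lie at the tested range limits. Trimethoprim-sulfamethoxazole is given as the trimethoprim component of a 1:19 mixture.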

CCN1CCN(c2cc3c(cc2F)c(=O)c(C(=O)O)cn3C2CC2)CC1 [Enrofloxacin]
Settings | minimum inhibitory concentration [µg/mL]
isolate (source animal id): 3 | ≤ 0.12
isolate (source animal id): 4 | ≤ 0.12
isolate (source animal id): 7 | ≤ 0.12
isolate (source animal id): 14 | ≤ 0.12
isolate (source animal id): 15 | ≤ 0.12
isolate (source animal id): 17 | ≤ 0.12
isolate (source animal id): 18 | ≤ 0.12
isolate (source animal id): 20 | ≤ 0.12
isolate (source animal id): 23 | ≤ 0.12
isolate (source animal id): 45 | ≤ 0.12
isolate (source animal id): 53 | ≤ 0.12
isolate (source animal id): 83 | ≤ 0.12
isolate (source animal id): 88 | ≤ 0.12
isolate (source animal id): 92 | ≤ 0.12
isolate (source animal id): 93 | ≤ 0.12
isolate (source animal id): 99 | ≤ 0.12
isolate (source animal id): 100 | ≤ 0.12
isolate (source animal id): 105 | ≤ 0.12
isolate (source animal id): 107 | ≤ 0.12
isolate (source animal id): 108 | ≤ 0.12
isolate (source animal id): 109 | ≤ 0.12
isolate (source animal id): 110 | ≤ 0.12
isolate (source animal id): 117 | ≤ 0.12
isolate (source animal id): 121 | ≤ 0.12
isolate (source animal id): 123 | ≤ 0.12
isolate (source animal id): 124 | ≤ 0.12
isolate (source animal id): 127 | ≤ 0.12
isolate (source animal id): 128 | ≤ 0.12
isolate (source animal id): 130 | ≤ 0.12
isolate (source animal id): 132 | ≤ 0.12
isolate (source animal id): 135 | ≤ 0.12
isolate (source animal id): 140 | ≤ 0.12
isolate (source animal id): 141 | ≤ 0.12
isolate (source animal id): 142 | ≤ 0.12
isolate (source animal id): 144 | ≤ 0.12
isolate (source animal id): 146 | ≤ 0.12
isolate (source animal id): 147 | ≤ 0.12
isolate (source animal id): 151 | ≤ 0.12
isolate (source animal id): 153 | ≤ 0.12
isolate (source animal id): 154 | ≤ 0.12
isolate (source animal id): 156 | ≤ 0.12
isolate (source animal id): 157 | ≤ 0.12
isolate (source animal id): 176 | ≤ 0.12
isolate (source animal id): 183 | ≤ 0.12
isolate (source animal id): 186 | ≤ 0.12
isolate (source animal id): 196 | ≤ 0.12
isolate (source animal id): 198 | ≤ 0.12
isolate (source animal id): 200 | ≤ 0.12
isolate (source animal id): 206 | ≤ 0.12
isolate (source animal id): 208 | ≤ 0.12
isolate (source animal id): 210 | ≤ 0.12
isolate (source animal id): 212 | ≤ 0.12
isolate (source animal id): 215 | ≤ 0.12
isolate (source animal id): 216 | ≤ 0.12
isolate (source animal id): 218 | ≤ 0.12
isolate (source animal id): 219 | ≤ 0.12
isolate (source animal id): 224 | ≤ 0.12
isolate (source animal id): 228 | ≤ 0.12
isolate (source animal id): 230 | ≤ 0.12
isolate (source animal id): 233 | ≤ 0.12
isolate (source animal id): 238 | ≤ 0.12
isolate (source animal id): 239 | ≤ 0.12
isolate (source animal id): 241 | ≤ 0.12
isolate (source animal id): 242 | ≤ 0.12
isolate (source animal id): 243 | ≤ 0.12
isolate (source animal id): 245 | ≤ 0.12
isolate (source animal id): 246 | ≤ 0.12
isolate (source animal id): 247 | ≤ 0.12
isolate (source animal id): 248 | ≤ 0.12
isolate (source animal id): 250 | ≤ 0.12
isolate (source animal id): 251 | ≤ 0.12
isolate (source animal id): 252 | ≤ 0.12
isolate (source animal id): 254 | ≤ 0.12
isolate (source animal id): 258 | ≤ 0.12
isolate (source animal id): 259 | ≤ 0.12
isolate (source animal id): 262 | ≤ 0.12
isolate (source animal id): 264 | ≤ 0.12
isolate (source animal id): 265 | ≤ 0.12
isolate (source animal id): 266 | ≤ 0.12
isolate (source animal id): 267 | ≤ 0.12
isolate (source animal id): 269 | ≤ 0.12
isolate (source animal id): 271 | ≤ 0.12
isolate (source animal id): 272 | ≤ 0.12
isolate (source animal id): 274 | ≤ 0.12
isolate (source animal id): 276 | ≤ 0.12
isolate (source animal id): 278 | ≤ 0.12
isolate (source animal id): 280 | ≤ 0.12
isolate (source animal id): 281 | ≤ 0.12
isolate (source animal id): 283 | ≤ 0.12
isolate (source animal id): 288 | ≤ 0.12
isolate (source animal id): 291 | ≤ 0.12
isolate (source animal id): 292 | ≤ 0.12
isolate (source animal id): 296 | ≤ 0.12
isolate (source animal id): 306 | ≤ 0.12
isolate (source animal id): 336 | ≤ 0.12
isolate (source animal id): 337 | ≤ 0.12
isolate (source animal id): 341 | ≤ 0.12

COc1cc(NS(=O)(=O)c2ccc(N)cc2)nc(OC)n1 [sulfadimethoxine]
Settings | minimum inhibitory concentration [µg/mL]
isolate (source animal id): 3 | ≤ 256
isolate (source animal id): 4 | ≤ 256
isolate (source animal id): 7 | ≤ 256
isolate (source animal id): 14 | ≤ 256
isolate (source animal id): 15 | ≤ 256
isolate (source animal id): 17 | ≤ 256
isolate (source animal id): 18 | ≤ 256
isolate (source animal id): 20 | ≤ 256
isolate (source animal id): 23 | > 256
isolate (source animal id): 45 | > 256
isolate (source animal id): 53 | > 256
isolate (source animal id): 83 | ≤ 256
isolate (source animal id): 88 | ≤ 256
isolate (source animal id): 92 | ≤ 256
isolate (source animal id): 93 | ≤ 256
isolate (source animal id): 99 | ≤ 256
isolate (source animal id): 100 | ≤ 256
isolate (source animal id): 105 | ≤ 256
isolate (source animal id): 107 | ≤ 256
isolate (source animal id): 108 | ≤ 256
isolate (source animal id): 109 | ≤ 256
isolate (source animal id): 110 | ≤ 256
isolate (source animal id): 117 | ≤ 256
isolate (source animal id): 121 | ≤ 256
isolate (source animal id): 123 | ≤ 256
isolate (source animal id): 124 | ≤ 256
isolate (source animal id): 127 | ≤ 256
isolate (source animal id): 128 | ≤ 256
isolate (source animal id): 130 | ≤ 256
isolate (source animal id): 132 | ≤ 256
isolate (source animal id): 135 | ≤ 256
isolate (source animal id): 140 | ≤ 256
isolate (source animal id): 141 | ≤ 256
isolate (source animal id): 142 | ≤ 256
isolate (source animal id): 144 | ≤ 256
isolate (source animal id): 146 | ≤ 256
isolate (source animal id): 147 | ≤ 256
isolate (source animal id): 151 | ≤ 256
isolate (source animal id): 153 | ≤ 256
isolate (source animal id): 154 | ≤ 256
isolate (source animal id): 156 | ≤ 256
isolate (source animal id): 157 | ≤ 256
isolate (source animal id): 176 | > 256
isolate (source animal id): 183 | > 256
isolate (source animal id): 186 | > 256
isolate (source animal id): 196 | > 256
isolate (source animal id): 198 | > 256
isolate (source animal id): 200 | > 256
isolate (source animal id): 206 | > 256
isolate (source animal id): 208 | > 256
isolate (source animal id): 210 | > 256
isolate (source animal id): 212 | ≤ 256
isolate (source animal id): 215 | > 256
isolate (source animal id): 216 | > 256
isolate (source animal id): 218 | ≤ 256
isolate (source animal id): 219 | > 256
isolate (source animal id): 224 | > 256
isolate (source animal id): 228 | > 256
isolate (source animal id): 230 | > 256
isolate (source animal id): 233 | > 256
isolate (source animal id): 238 | > 256
isolate (source animal id): 239 | ≤ 256
isolate (source animal id): 241 | > 256
isolate (source animal id): 242 | > 256
isolate (source animal id): 243 | ≤ 256
isolate (source animal id): 245 | > 256
isolate (source animal id): 246 | > 256
isolate (source animal id): 247 | > 256
isolate (source animal id): 248 | ≤ 256
isolate (source animal id): 250 | > 256
isolate (source animal id): 251 | > 256
isolate (source animal id): 252 | > 256
isolate (source animal id): 254 | > 256
isolate (source animal id): 258 | ≤ 256
isolate (source animal id): 259 | > 256
isolate (source animal id): 262 | ≤ 256
isolate (source animal id): 264 | ≤ 256
isolate (source animal id): 265 | > 256
isolate (source animal id): 266 | > 256
isolate (source animal id): 267 | > 256
isolate (source animal id): 269 | ≤ 256
isolate (source animal id): 271 | > 256
isolate (source animal id): 272 | > 256
isolate (source animal id): 274 | ≤ 256
isolate (source animal id): 276 | ≤ 256
isolate (source animal id): 278 | > 256
isolate (source animal id): 280 | > 256
isolate (source animal id): 281 | > 256
isolate (source animal id): 283 | ≤ 256
isolate (source animal id): 288 | ≤ 256
isolate (source animal id): 291 | ≤ 256
isolate (source animal id): 292 | > 256
isolate (source animal id): 296 | ≤ 256
isolate (source animal id): 306 | > 256
isolate (source animal id): 336 | ≤ 256
isolate (source animal id): 337 | ≤ 256
isolate (source animal id): 341 | ≤ 256
